Data from patent US20080292584A1 (priority 2005, published 2008).

Tests used:
[1] = molecular target: CYP2E1 (Homo sapiens, UniProt P05181); experiment: Chemical inhibition of metaxalone turnover in human liver microsomes, CYP2E1 inhibitor clomethiazole; settings: both, human, microsomes, pH 7.4, Inhibition of metaxalone disappearance (% inhibition of turnover)
[2] = molecular target: CYP3A4 (Homo sapiens, UniProt P08684); experiment: in vitro; settings: both, pooled human liver microsomes
[3] = tested on: CYP1A2; experiment: Induction/inhibition of CYP1A2 activity in cryopreserved human hepatocytes after 48 h exposure (phenacetin); settings: human, 48 h, 50 μM
Source text: (§1) Hepatocytes from three human donors were obtained from a cryopreserved hepatocyte bank (In Vitro Technologies, Inc., USA). After thawing, viable hepatocytes were transferred to collagen-coated 48-well plates for attachment in plating medium (DMEM stock (Dulbecco's modified Eagle's medium, supplemented with bovine serum albumin, fructose, N-(2-hydroxyethyl)piperazine-N′-(2-ethanesulfonate) (HEPES), and sodium bicarbonate), supplemented with antibiotics, bovine serum, hydrocortisone, insulin and minimum essential medium (MEM) nonessential amino acids). After attachment to the collagen matrix, plating medium was replaced with sandwich medium (plating medium supplemented with VITROGEN) and incubated until use.
(§2) The supplemented KHB was replaced with 150 μL supplemented KHB containing the appropriate isoform-selective substrate and incubated for 4 hrs prior to termination by adding 150 μL ice-cold methanol, except for the CYP2C8 incubations which were terminated by adding 150 μL acetonitrile.
(§3) All substrates were dissolved in acetonitrile.
(§4) Replicate trials and controls were performed. […] Additionally, reference control samples were included to evaluate inducibility of CYP2B6, CYP2C9, and CYP2C19 in the test system.
(§5) Mean specific activity values with associated p-values≦0.05 were deemed to be statistically significant.

[4] = molecular target: T1, CYP1A2 (Homo sapiens, UniProt P05177); experiment: Chemical inhibition of metaxalone turnover in human liver microsomes, CYP1A2 selective inhibitor furafylline; settings: both, pooled human liver microsomes
T1 sequence (P05177 1-516): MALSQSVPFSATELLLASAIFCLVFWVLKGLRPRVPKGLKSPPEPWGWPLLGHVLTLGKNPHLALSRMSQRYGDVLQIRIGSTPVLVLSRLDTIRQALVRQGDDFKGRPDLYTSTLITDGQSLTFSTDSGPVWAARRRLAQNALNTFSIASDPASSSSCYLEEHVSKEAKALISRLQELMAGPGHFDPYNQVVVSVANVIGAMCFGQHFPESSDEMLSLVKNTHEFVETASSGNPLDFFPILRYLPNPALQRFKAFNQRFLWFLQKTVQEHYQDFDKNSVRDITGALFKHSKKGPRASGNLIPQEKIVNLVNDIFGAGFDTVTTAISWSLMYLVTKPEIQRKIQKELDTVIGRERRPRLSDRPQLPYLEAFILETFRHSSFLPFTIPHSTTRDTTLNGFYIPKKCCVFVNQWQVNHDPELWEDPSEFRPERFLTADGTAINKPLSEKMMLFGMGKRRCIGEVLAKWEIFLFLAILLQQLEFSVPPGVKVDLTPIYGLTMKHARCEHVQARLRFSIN

[5] = tested on: CYP2B6; experiment: Induction/inhibition of CYP2B6 activity in cryopreserved human hepatocytes (S-mephenytoin); settings: 1 mM Phenobarbital; each hepatocyte donor
Source text: as §1, §2, §3, §4, §5

[6] = tested on: CYP2B6; experiment: Chemical inhibition of metaxalone turnover in human liver microsomes, CYP2B6 inhibitor thio-TEPA; settings: both, human, microsomes, pH 7.4, Inhibition of metaxalone disappearance (% inhibition of turnover)
[7] = molecular target: T2, CYP2C8 (Homo sapiens, UniProt P10632); experiment: Chemical inhibition of metaxalone turnover in human liver microsomes, CYP2C8 inhibitor quercetin; settings: both, human, pooled human liver microsomes
T2 sequence (P10632 1-490): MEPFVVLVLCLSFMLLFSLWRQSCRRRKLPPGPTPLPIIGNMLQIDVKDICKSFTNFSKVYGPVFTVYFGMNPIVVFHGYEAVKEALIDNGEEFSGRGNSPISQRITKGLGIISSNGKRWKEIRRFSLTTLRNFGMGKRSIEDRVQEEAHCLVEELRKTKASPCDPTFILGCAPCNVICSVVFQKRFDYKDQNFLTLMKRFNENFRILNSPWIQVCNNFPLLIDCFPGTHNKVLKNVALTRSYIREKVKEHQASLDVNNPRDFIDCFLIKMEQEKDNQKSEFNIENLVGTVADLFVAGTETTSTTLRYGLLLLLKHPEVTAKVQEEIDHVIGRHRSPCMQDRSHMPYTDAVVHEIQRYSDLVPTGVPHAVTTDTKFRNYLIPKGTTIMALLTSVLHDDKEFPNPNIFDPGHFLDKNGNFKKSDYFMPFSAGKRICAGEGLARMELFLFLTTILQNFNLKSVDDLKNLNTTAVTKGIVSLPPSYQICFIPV

[8] = molecular target: CYP2C9 (Homo sapiens, UniProt P11712); experiment: in vitro; settings: both, microsomes, pH 7.4, Inhibition of metaxalone disappearance (% inhibition of turnover)
[9] = tested on: CYP2A6; experiment: Chemical inhibition of metaxalone turnover in human liver microsomes, CYP2A6 inhibitor pilocarpine; settings: both, human, microsomes, pH 7.4, Inhibition of metaxalone disappearance (% inhibition of turnover)
[10] = pH 7.4, probe metaxalone 0.75 μM (disappearance)
[11] = pH 7.4, probe metaxalone 7.5 μM (disappearance)

CYP3A4, sequence (P08684 whole entry): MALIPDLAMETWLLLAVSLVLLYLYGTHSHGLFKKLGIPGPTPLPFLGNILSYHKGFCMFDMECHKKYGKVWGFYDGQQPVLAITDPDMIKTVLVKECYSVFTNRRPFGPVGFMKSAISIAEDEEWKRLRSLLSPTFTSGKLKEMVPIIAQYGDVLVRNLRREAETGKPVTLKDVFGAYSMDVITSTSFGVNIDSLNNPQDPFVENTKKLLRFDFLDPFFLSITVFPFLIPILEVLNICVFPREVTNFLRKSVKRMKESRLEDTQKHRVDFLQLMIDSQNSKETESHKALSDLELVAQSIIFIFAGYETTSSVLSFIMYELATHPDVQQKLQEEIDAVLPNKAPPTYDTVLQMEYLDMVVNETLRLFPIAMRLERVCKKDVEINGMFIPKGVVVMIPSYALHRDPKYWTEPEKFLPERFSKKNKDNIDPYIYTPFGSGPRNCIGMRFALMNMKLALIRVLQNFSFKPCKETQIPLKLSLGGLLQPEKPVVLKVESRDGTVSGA
CYP2E1, sequence (P05181 whole entry): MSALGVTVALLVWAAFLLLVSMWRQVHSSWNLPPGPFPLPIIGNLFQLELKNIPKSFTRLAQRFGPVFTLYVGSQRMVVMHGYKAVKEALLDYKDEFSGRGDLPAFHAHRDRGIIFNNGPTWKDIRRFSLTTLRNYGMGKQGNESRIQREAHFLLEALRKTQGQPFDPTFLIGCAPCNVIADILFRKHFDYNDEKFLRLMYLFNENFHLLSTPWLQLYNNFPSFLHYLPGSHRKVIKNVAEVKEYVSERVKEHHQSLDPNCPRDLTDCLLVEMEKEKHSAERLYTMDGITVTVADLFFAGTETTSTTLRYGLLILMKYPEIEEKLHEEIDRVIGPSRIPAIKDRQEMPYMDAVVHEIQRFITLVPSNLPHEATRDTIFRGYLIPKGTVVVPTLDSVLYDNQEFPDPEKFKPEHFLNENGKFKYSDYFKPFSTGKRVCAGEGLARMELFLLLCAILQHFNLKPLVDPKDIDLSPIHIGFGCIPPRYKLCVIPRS
CYP2C9, sequence (P11712 whole entry): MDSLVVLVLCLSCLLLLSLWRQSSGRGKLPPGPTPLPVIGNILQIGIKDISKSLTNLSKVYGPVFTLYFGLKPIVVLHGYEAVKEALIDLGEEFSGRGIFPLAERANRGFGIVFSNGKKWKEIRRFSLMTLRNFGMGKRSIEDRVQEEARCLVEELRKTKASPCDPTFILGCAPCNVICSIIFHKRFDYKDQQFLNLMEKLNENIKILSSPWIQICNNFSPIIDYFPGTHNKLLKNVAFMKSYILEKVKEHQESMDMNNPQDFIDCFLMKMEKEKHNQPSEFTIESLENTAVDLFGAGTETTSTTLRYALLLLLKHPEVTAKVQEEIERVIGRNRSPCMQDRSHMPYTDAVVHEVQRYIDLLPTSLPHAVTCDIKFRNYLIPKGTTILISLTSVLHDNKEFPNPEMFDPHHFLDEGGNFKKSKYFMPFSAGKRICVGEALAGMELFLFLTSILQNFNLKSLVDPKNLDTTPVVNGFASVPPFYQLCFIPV

Structure (SMILES): Cc1ncsc1CCCl [clomethiazole]
- inhibition at 60 min ([1]; 0.75 μM metaxalone): 113 ± 21%
- inhibition at 60 min ([1]; 7.5 μM metaxalone): 98.6 ± 4.9%

Structure (SMILES): CC(=O)N1CCN(c2ccc(OCC3COC(Cn4ccnc4)(c4ccc(Cl)cc4Cl)O3)cc2)CC1 (stereo not shown) [ketoconazole]
- inhibition at 60 min [2, 10]: 126 ± 5%
- inhibition at 60 min [2, 11]: 130 ± 18%

Structure (SMILES): COc1ccc2[nH]c([S+]([O-])Cc3ncc(C)c(OC)c3C)nc2c1 (stereo not shown) [omeprazole]
- induction [3]: ≥ 200%

Structure (SMILES): Cc1nc2c([nH]1)c(=O)n(C)c(=O)n2Cc1ccco1 [furafylline]
- inhibition at 60 min [4, 10]: 111 ± 29%
- inhibition at 60 min [4, 11]: 80.6 ± 2.4%

Structure (SMILES): CCC1(c2ccccc2)C(=O)NC(=O)NC1=O [Phenobarbital]
- induction (reference control) [5]: statistically significant amount of induction

Structure (SMILES): S=P(N1CC1)(N1CC1)N1CC1 [thio-TEPA]
- inhibition at 60 min ([6]; 0.75 μM metaxalone): 58.3 ± 2.4%
- inhibition at 60 min ([6]; 7.5 μM metaxalone): 43.3 ± 13.8%

Structure (SMILES): O=c1c(O)c(-c2ccc(O)c(O)c2)oc2cc(O)cc(O)c12 [quercetin]
- inhibition at 60 min [7, 10]: 77.2 ± 13.6%
- inhibition at 60 min [7, 11]: 84.7 ± 18.3%

Structure (SMILES): Nc1ccc(S(=O)(=O)Nc2ccnn2-c2ccccc2)cc1 [sulfaphenazole]
- inhibition at 60 min ([8]; 0.75 μM metaxalone): 81.4 ± 0.3%
- inhibition at 60 min ([8]; 7.5 μM metaxalone): 52.8 ± 2.9%

Structure (SMILES): CC[C@@H]1C(=O)OC[C@@H]1Cc1cncn1C [pilocarpine]
- inhibition at 60 min ([9]; 0.75 μM metaxalone): 46.2 ± 5.7%
- inhibition at 60 min ([9]; 7.5 μM metaxalone): 50.8 ± 6.9%
